Values quoted from earlier work as cited in US20250000872A1, “FORMULATIONS AND DOSING REGIMENS FOR RIP1 KINASE INHIBITORS FOR TREATING AUTOIMMUNE AND INFLAMMATORY DISEASES” (Eli Lilly and Company, priority 2023, published 2025).

How the values were obtained:
UC = details: 60 mg orally t.i.d. for up to 84 days; cited from earlier work
[1] = tested on: patients with mild-to-moderate active plaque-type psoriasis; details: 60 mg orally b.i.d. and 60 mg orally t.i.d.; cited from earlier work
[2] = modified release formulations, fasted state; not maintained with standard or high-fat meal; cited from earlier work
[3] = tested on: patients with moderate to severe RA; details: 60 mg orally b.i.d. and t.i.d. for up to 84 days; cited from earlier work

## CN1C(=O)[C@@H](NC(=O)c2nnc(Cc3ccccc3)[nH]2)COc2ccccc21 [GSK2982772, 5-Benzyl-N-[(3S)-5-methyl-4-oxo-2,3-dihydro-1,5-benzoxazepin-3-yl]-1H-1,2,4-triazole-3-carboxamide]
UC
  histological disease activity or clinical efficacy compared with placebo: does not lead to differences
[1]
  clinical improvement over placebo: limited
[2]
  GSK2982772 released over 12 h: 80%
[3]
  difference over placebo in disease activity, radiological progression, or inflammatory markers: No significant difference
